Results: patent US20090264384A1, “INDOLE, BENZIMIDAZOLE, AND BENZOLACTAM BORONIC ACID COMPOUNDS, ANALOGS THEREOF AND METHODS OF USE THEREOF” (Nuada, Inc., priority 2004, published 2009)
pIC50: −log10 of the molar value.

Key:
[1] = molecular target: Phosphodiesterase 3(h) (Homo sapiens, UniProt Q14432); test: Phosphodiesterase 3(h) enzyme assay; assay type: biochemical; settings: Hill coefficient, Phosphodiesterase 3(h)
[2] = test system: α1 (non-selective); test: α1 (non-selective) binding assay; design: species or system rat
[3] = molecular target: Cytochrome P450 (CYP) (Homo sapiens, UniProt P10635); test: ADME-Tox: In vitro Metabolism (Cytochrome P450, fluorogenic substrates BFC, CEC, MFC); settings: Hill coefficient, CYP2D6 Inhibition (7-MFC substrate)
Chain of Cytochrome P450 (CYP) (Homo sapiens, UniProt P10635) (P10635 whole entry): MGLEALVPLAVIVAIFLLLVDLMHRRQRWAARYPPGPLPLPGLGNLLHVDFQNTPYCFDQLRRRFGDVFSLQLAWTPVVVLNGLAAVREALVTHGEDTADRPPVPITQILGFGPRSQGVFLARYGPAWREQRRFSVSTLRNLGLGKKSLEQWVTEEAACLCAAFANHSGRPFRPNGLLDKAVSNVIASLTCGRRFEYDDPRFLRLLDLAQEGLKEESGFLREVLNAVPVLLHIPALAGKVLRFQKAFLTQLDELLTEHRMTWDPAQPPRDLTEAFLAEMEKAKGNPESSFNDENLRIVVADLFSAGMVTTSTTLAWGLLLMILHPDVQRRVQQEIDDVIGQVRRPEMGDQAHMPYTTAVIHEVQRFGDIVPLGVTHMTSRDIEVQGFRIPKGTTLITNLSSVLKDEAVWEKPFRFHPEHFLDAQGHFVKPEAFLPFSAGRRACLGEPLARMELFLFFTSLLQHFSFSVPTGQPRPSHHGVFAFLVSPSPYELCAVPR

[4] = molecular target: T1, Phosphodiesterase 5(h) (Homo sapiens, UniProt O76074); test: Phosphodiesterase 5(h) enzyme assay; assay type: biochemical; settings: Hill coefficient, Phosphodiesterase 5(h)
T1 construct: human platelets; from tissue; host or cells: human platelets

[5] = test system: chronic colitis provoked by trinitrobenzene sulphonic acid (TNBS); test: Rat model of chronic colitis provoked by TNBS over 14 days, treatment from Day 1; assay type: in vivo; settings: 3 mg/kg i.v. on Day 1 and Day 7
From the text: In the chronic model of colitis, assessment of the colonic inflammation is made 14 days or longer, after the intracolonic challenge with TNBS (Boughton-Smith et al, 1988a, 1988b; Wallace et al, 1989; Rachmilewitz et al, 1989; Wallace and Keenan, 1990; Ameho et al, 1987; Sans et al, 1999; Sun et al, 2001; Maric et al, 2003; Moreels et al, 2004; Gonzalez et al, 2004). This model allows treatment with experimental agents to commence following the establishment of the colonic injury, typically 24 hours after the TNBS challenge (Galvez et al, 2000, Villegas, 2003, Gonzalez et al, 2004). The model should therefore identify the ability of the experimental compounds to accelerate the diminution of the inflammatory response and to promote healing of the colonic lesions. This model thus has relevance additional to the acute model, as the clinical correlate is the therapeutic intervention in patients with existing IBD not in remission or with flare-up, to reduce the crisis. This contrasts with the acute TNBS model where the compounds are administered one or two days prior to challenge, the clinical correlate being the use of prophylactic therapy to prevent flare-up and maintain remission in IBD patients.
In this current study, the low intracolonic challenge concentration of TNBS used in the acute studies was also used for the chronic study over a 14 day period. This concentration and timing was based on the findings from pilot studies where a range of concentrations of TNBS and treatment conditions were evaluated over a 14 day period. […].
The methods and protocol used were substantially similar to those in Example 39-40, with some differences described below.
TNBS Challenge. Male Wistar rats (average body weight, 210 g) were randomised into groups before commencement of the study. In all groups, including the non-challenged and non-treated absolute control group, food was withdrawn for 12 h before TNBS administration (i.e. overnight on Day −1), but the rats were allowed free access to drinking water.
On the morning of the day of challenge (Day 0, between 9.00 and 1 1.00 a.m.), the rats were transiently anaesthetised with ether and the TNBS solution (10 mg in 0.25 ml of 50% ethanol) was instilled approximately 6-8 cm into the colon using a soft plastic catheter inserted in the rat rectum. The rats were allowed to recover with free access to food and drinking water. At the end of the experiment, on the morning of Day 14, between 9.00 and 11.00), the colon was dissected, and the distal 8 cm photographed and immediately processed or stored appropriately for subsequent analyses.
The following primary parameters were measured in the study: macroscopic scoring of distal 8 cm of colon; myeloperoxidase levels in segments of distal 8 cm of colon; TNF-α levels in segments of distal 8 cm of colon.
In addition, the weight of the standard colonic segment was assessed as an indirect and non-specific marker of oedema. The body weight of the animals was also determined each evening of the study, starting on Day-1, and also on the morning of Day 14. The data is shown graphically as the % change from the weight on Day-1, prior to challenge.
Treatments. The TNBS challenged groups for study were: (a) Vehicle control 0.5% carboxy methyl cellulose (CMC) p.o., twice daily from Day; (b) CCI-7506 25 mg/kg, p.o., twice daily from Day 1 (50 mg/kg/day total); (c) CCI-7506 50 mg/kg, p.o., twice daily from Day 1 (100 mg/kg/day total); (d) CCI-7507 12.5 mg/kg, p.o., twice daily from Day 1 (25 mg/kg/day total); (e) CCI-7507 25 mg/kg, p.o., twice daily from Day 1(50 mg/kg/day total); […]; (g) Infliximab 3 mg/kg, single slow i.v. injection, on Day 1 and Day7.
The experimental compounds that were administered orally were given twice a day from Day 1, i.e. 24 h following TNBS administration, for the remainder of the 14 day experimental period. Infliximab was administered by slow i.v. injection of Day 1 and on Day 7. […]

[6] = test system: TNBS colitis; settings: single intravenous dose pre-treatment; 8 days after TNBS challenge; cited from earlier work
[7] = molecular target: Catechol-O-methyl transferase; test: Catechol-O-methyl transferase enzyme assay; assay type: biochemical, porcine; settings: reference compound, Catechol-O-methyl transferase
Chain of Catechol-O-methyl transferase (Q99028 whole entry): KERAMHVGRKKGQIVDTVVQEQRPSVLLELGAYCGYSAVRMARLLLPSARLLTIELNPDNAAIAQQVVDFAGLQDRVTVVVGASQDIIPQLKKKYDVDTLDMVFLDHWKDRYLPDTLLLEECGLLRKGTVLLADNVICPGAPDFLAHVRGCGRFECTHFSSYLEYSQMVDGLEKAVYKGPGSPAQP

[8] = molecular target: Cytochrome P450 (CYP) (Homo sapiens, UniProt P11712); test: ADME-Tox: In vitro Metabolism (Cytochrome P450, fluorogenic substrates BFC, CEC, MFC); settings: Hill coefficient, CYP2C9 Inhibition (7-MFC substrate)
Chain of Cytochrome P450 (CYP) (Homo sapiens, UniProt P11712) (P11712 whole entry): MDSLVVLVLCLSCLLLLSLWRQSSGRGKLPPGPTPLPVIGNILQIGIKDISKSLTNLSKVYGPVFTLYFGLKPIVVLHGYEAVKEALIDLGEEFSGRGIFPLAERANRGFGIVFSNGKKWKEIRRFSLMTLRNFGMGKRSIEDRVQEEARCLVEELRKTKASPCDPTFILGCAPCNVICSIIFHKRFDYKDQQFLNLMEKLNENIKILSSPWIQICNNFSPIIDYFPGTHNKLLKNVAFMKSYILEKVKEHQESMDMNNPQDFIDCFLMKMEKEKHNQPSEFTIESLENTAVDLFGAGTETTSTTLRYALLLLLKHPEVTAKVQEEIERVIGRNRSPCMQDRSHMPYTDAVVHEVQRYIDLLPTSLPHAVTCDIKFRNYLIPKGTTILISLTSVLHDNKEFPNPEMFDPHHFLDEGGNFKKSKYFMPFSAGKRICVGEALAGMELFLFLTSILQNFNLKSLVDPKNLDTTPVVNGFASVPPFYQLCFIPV

[9] = molecular target: T2, Acetylcholinesterase(h) (Homo sapiens, UniProt P22303); test: Acetylcholinesterase(h) enzyme assay; assay type: biochemical; settings: Hill coefficient, Acetylcholinesterase(h)
T2 construct: host or cells: HEK-293 cells
T2 sequence (P22303 32-614): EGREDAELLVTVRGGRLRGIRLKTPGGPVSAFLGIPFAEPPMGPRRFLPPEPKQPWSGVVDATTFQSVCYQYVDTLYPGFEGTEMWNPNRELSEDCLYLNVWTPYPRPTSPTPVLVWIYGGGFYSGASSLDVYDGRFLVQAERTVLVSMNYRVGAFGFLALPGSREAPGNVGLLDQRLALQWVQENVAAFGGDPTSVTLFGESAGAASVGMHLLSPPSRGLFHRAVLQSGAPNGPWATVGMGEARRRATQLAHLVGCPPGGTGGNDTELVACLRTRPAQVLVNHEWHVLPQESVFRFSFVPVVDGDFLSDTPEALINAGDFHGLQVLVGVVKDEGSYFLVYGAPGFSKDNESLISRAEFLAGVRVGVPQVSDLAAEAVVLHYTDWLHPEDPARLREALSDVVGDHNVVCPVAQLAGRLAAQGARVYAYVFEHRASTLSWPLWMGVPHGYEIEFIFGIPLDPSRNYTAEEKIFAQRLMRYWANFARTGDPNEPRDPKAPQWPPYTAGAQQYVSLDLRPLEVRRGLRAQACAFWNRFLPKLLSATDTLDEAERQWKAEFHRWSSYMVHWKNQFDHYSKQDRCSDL

[10] = molecular target: Phosphodiesterase 1; test: Phosphodiesterase 1 enzyme assay; assay type: biochemical, bovine; settings: reference compound, Phosphodiesterase 1
[11] = molecular target: Cytochrome P450 (CYP) (Homo sapiens, UniProt P05177)
Chain of Cytochrome P450 (CYP) (Homo sapiens, UniProt P05177) (P05177 whole entry): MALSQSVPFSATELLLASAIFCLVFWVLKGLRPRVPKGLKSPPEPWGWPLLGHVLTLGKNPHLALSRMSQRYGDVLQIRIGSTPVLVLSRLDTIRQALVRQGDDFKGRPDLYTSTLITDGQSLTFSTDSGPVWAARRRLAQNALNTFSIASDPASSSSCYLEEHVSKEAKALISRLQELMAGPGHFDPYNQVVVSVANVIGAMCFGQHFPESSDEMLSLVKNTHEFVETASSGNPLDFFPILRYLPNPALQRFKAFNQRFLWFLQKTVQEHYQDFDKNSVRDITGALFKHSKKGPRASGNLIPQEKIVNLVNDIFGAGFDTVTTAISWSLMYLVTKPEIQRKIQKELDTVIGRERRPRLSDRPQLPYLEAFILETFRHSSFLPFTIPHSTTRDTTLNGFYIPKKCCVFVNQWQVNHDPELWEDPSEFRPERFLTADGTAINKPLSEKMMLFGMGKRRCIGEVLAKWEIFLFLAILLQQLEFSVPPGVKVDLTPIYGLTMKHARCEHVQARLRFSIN

Chain of Phosphodiesterase 3(h) (Q14432 674-1093 limits assumed): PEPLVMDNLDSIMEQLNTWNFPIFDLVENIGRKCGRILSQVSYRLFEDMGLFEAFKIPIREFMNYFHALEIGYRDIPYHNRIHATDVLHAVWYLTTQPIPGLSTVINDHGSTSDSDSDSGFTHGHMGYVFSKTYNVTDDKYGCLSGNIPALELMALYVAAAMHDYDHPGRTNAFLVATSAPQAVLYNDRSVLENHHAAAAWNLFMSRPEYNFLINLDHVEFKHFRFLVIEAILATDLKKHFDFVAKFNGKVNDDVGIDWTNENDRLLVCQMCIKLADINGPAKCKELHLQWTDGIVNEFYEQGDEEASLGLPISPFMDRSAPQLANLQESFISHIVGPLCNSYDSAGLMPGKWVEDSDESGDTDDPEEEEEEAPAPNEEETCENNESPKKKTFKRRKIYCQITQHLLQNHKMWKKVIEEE

Q: Which nH [1] does the source give for Cc1[nH]c(=O)c(C#N)cc1-c1ccncc1 [milrinone] here?
A: The nH was 0.8.

Q: Which nH [2] does the source give for COc1cc2nc(N3CCN(C(=O)c4ccco4)CC3)nc(N)c2cc1OC [prazosin, reference compound] here?
A: Its nH is 1.6.

Q: Which nH [3] does the source give for C=C[C@H]1C[N@@]2CC[C@H]1C[C@@H]2[C@@H](O)c1ccnc2ccc(OC)cc12 [quinidine] here?
A: Its nH is 0.9.

Q: With OCCN(CCO)c1nc(N2CCCCC2)c2nc(N(CCO)CCO)nc(N3CCCCC3)c2n1 [dipyridamole] as the compound, how does the nH [4] read?
A: The nH was 1.5.

Q: Which “macroscopic Damage Score” value ([5]; Day 14) does the source give for infliximab here?
A: The value was “reduced the damage score”.

Q: What about the “reduction in colon weight” value ([5]; Day 14, vs CMC group) of the same compound?
A: Its value is “significant (P<0.05) reduction in colon weight”.

Q: What about the “reduction in colonic MPO activity” value ([5]; Day 14, vs CMC group) of the same compound?
A: The value was “significantly attenuated the increase in MPO”.

Q: And the “reduction in colonic TNF-α levels” value ([5]; Day 14, vs CMC group)?
A: Its value is “significantly attenuated the increase in TNF-α levels”.

Q: What about the “reduction in colonic lesion area (% of the total area measured)” value ([5]; Day 14, vs CMC group) of the same compound?
A: Its value is “significantly attenuated the area of injury”.

Q: What about the “attenuation of TNBS-induced fall in body weight (% change of body weight at Day −1)” value ([5]; over 14 days, vs CMC group) of the same compound?
A: Its value is “significant on Day 2 and 3”.

Q: What about the “macroscopic injury, colonic MPO and TNF-α levels” value [6] of the same compound?
A: Its value is “found to reduce the macroscopic injury, colonic MPO and TNF-α levels”.

Q: With Ro 41-0960 as the compound, how does the pIC50 [7] read?
A: Its pIC50 is 7.29.

Q: For Nc1ccc(S(=O)(=O)Nc2ccnn2-c2ccccc2)cc1 [sulfaphenazole], which nH [8] is on record?
A: Its nH is 1.0.

Q: With CN(C)C(=O)Oc1cccc([N+](C)(C)C)c1 [neostigmine] as the compound, how does the nH [9] read?
A: The nH was 1.5.

Q: With COc1nc2c([nH]1)c(=O)n(C)c(=O)n2CC(C)C [Example 8-methoxy-IBMX] as the compound, how does the pIC50 [10] read?
A: The pIC50 was 5.62.

Q: For Cc1nc2c([nH]1)c(=O)n(C)c(=O)n2Cc1ccco1 [furafylline], which nH [11] is on record?
A: Its nH is 0.6.
